Data on 35 compounds can be found in patent US8058243B2, “Method for treating a brain cancer with ifenprodil” (HSC Research and Development Limited Partnership, priority 2006, dated 2011).

SMILES strings stand for the structures. Counter-ions that a name gives are not always drawn. Like-named read-outs stand apart in the source and are kept apart here.

The experiment deals with murine neural precursor cells (neurosphere cultures). The experiment can be described thus: HTS of LOPAC library against secondary neurosphere cultures, MTT proliferation assay at 3 μM, day 7 (z score, P value). It is filed as cell-based, mouse.
Where [1] appears, read: LOPAC primary screen, neurosphere MTT proliferation, 3 μM, day 7.
The mark [2] stands for this setting: yes/no: significantly inhibited neurosphere proliferation in primary screen.
[3] abbreviates: LOPAC library screen at 3 μM, secondary neurosphere cultures, MTT.
[4] abbreviates: LOPAC library screen, 3 μM, MTT, neurosphere cultures.
[5] abbreviates: LOPAC screen, neurosphere MTT proliferation, 3 μM, day 7.
[6] abbreviates: yes/no: significantly inhibited neurosphere proliferation (P<0.01) in primary screen.
Where [7] appears, read: primary LOPAC screen, 3 μM, MTT, neurosphere proliferation.
The mark [8] stands for this setting: yes/no: significantly inhibited neurosphere proliferation in the primary screen.
The mark [9] stands for this setting: LOPAC library screen, 3 μM, MTT, secondary neurosphere cultures, day 7.
The mark [10] stands for this setting: yes/no: significantly inhibited neurosphere proliferation (P<0.01) in the primary screen.

For `COc1cccc(NC(=O)/C=C/c2ccc(Cl)cc2)c1` [SB-366791], the “Z Score” value was −1.419. Also, under setting [1], the Z score is recorded as −1.419. In addition, the Activity result under setting [2] is “no”.

On to `COc1ccccc1N1CCN(CCCCN2C(=O)c3ccccc3C2=O)CC1` [NAN-190 hydrobromide], for which, under setting [3], the “Z Score” value is reported as −0.6186. Moreover, the Z score under setting [1] is −0.619. Under “yes = significantly inhibited neurosphere proliferation (P<0.01) in the primary screen”, the Activity result was “no”.

Take `CN(C)CCC(c1ccc(Cl)cc1)c1ccccn1.O=C(O)/C=C\C(=O)O` (stereo not shown) [(B1)-Chlorpheniramine maleate]: the “Z Score” value is −2.116.

In the case of `O=C(CCCN1CC=C(n2c(=O)[nH]c3ccccc32)CC1)c1ccc(F)cc1` [Droperidol], the Activity entry is recorded as “no”. For the same compound, the “Z Score” value under setting [4] worked out at 0.6447. Moreover, the Z score under setting [5] worked out at 0.645.

`C[C@H](Cc1ccc2c(c1)OC(C(=O)[O-])(C(=O)[O-])O2)NC[C@H](O)c1cccc(Cl)c1.[Na+].[Na+]` [CL 316,243] displayed a Z score under setting [5] of 0.621. The Activity result under setting [6] is “no”.

Regarding `C/C(O)=C(\C#N)C(=O)Nc1cc(Br)ccc1Br` [LFM-A13], the “Z Score” value is 4.5. Also, the Z score under setting [1] amounted to 4.500. For the same compound, under setting [6], the Activity result was “no”.

As for `N#C/C(=C\c1ccc(O)c(O)c1)C(=O)Nc1ccccc1` [Tyrphostin AG 494], the “Z Score” value is −2.275. For the same compound, under setting [7], the Z score is reported as −2.275. Further, the Activity result under setting [8] is on record as “no”.

`N[C@@H](Cc1ccc(O)c(I)c1)C(=O)O` [3-Iodo-L-tyrosine]: under “168 h, 3 µM”, the “Z Score” value is recorded as −0.04844 and the Z score was −0.048. Under setting [6], the Activity result was “no”.

For the compound `Oc1cccc2c(O)nccc12` [1,5-Isoquinolinediol], the “Z Score” value under setting [4] worked out at 0.02674. Further, the Z score under setting [1] is 0.027. The Activity result under setting [6] is “no”.

In the case of `O=[N+]([O-])c1cccc2c(Br)n[nH]c12` [3-Bromo-7-nitroindazole], for the setting “168 h, 3 µM”, the “Z Score” value is −1.68 and the Z score is −1.680. Also, under setting [8], the Activity result is listed as “no”.

As to `COc1cc2c(c(OC)c1OC)-c1ccc(OC)c(=O)cc1[C@@H](NC(C)=O)CC2` [Colchicine], the Activity result was “yes”, the “Z Score” value is −10.75 and the Z score is −10.753.

As for `CCCCCCCCC(=O)NCc1ccc(O)c(OC)c1` [N-Vanillylnonanamide], under setting [9], the “Z Score” value is −9.029. Also, the Z score under setting [1] is reported as −9.029. Further, the Activity entry under setting [10] was “yes”.

As for `Br.Br.C=CCN1CCc2c(cc(O)c(O)c2Cl)C(c2ccccc2)C1` (racemic) [(±)-Chloro-APB dihydrobromide], the Z score under setting [5] was −0.111. Also, the Activity entry under setting [6] is “no”.

On to `Cl.NCCNC(=O)c1ccc(Cl)cc1` [Ro 16-6491 hydrochloride], for which the “Z Score” value is on record as −2.181. For the same compound, the Z score under setting [1] is reported as −2.181. The Activity entry under setting [2] is given as “no”.

As for `COc1ccccc1N1CCN(CCN(C(=O)C2CCCCC2)c2ccccn2)CC1.O=C(O)/C=C\C(=O)O` [WAY-100635 maleate], the “Z Score” value is −0.4965. The Z score under setting [7] is −0.497. For the same compound, the Activity entry under setting [8] is reported as “no”.

Take `NC(Cc1ccc(Cl)cc1)C(=O)O` (racemic) [(±)-p-Chlorophenylalanine]: the Z score under setting [5] is listed as −0.247. Further, the Activity entry under setting [6] is listed as “no”.

For the compound `Br.CCCN(CCC)C1CCc2cccc(O)c2C1` (stereo not shown) [(B1)-8-Hydroxy-DPAT hydrobromide], the “Z Score” value was found to be 0.6561.

On to `CN(C)c1ccc(/C=C2\C(=O)Nc3ccccc32)cc1` [SU 4312], for which the “Z Score” value is 0.2692. Besides, the Z score under setting [1] is 0.269. Further, the Activity entry under setting [2] is “no”.

Turning to `O=C1Nc2ccccc2/C1=C1/Nc2ccccc2/C1=N\O` [Indirubin-3′-oxime], under setting [3], the “Z Score” value is reported as −0.3965. Besides, the Z score under setting [1] is recorded as −0.397. Also, the Activity result under setting [6] was “no”.

Consider `COc1cc2nc(N3CCN(C(=O)c4ccco4)CC3)nc(N)c2cc1OC` [Prazosin hydrochloride], for which the Activity entry is “yes”. Moreover, the “Z Score” value under setting [9] is on record as −2.902. The Z score under setting [1] is on record as −2.902.

With `CC(C)NCC(O)c1ccc(O)c(O)c1.Cl` (racemic) [(±)-Isopoterenol hydrochloride], under setting [1], the Z score is recorded as −0.572. Further, the Activity result under setting [6] is on record as “no”.

Consider `CN(C)CCC(c1ccc(Br)cc1)c1ccccn1.O=C(O)/C=C\C(=O)O` (stereo not shown) [(B1)-Brompheniramine maleate], for which the “Z Score” value is −3.53.

On to `Br.C=CCN1CCc2cc(O)c(O)cc2C(c2ccccc2)C1` (racemic) [(±)-SKF 38393, N-allyl-, hydrobromide], for which the Activity result is “no”. Besides, under setting [7], the Z score is given as −1.590.

Regarding `CCNC(=O)[C@H]1O[C@@H](n2cnc3c(N)ncnc32)[C@H](O)[C@@H]1O` [5′-N-Ethylcarboxamidoadenosine], the “Z Score” value under setting [9] was −2.587. For the same compound, under setting [1], the Z score is reported as −2.587. For the same compound, the Activity entry under setting [10] is “yes”.

In the case of `COC(=O)C1=C(C)NC(C)=C([N+](=O)[O-])C1c1ccccc1C(F)(F)F` (stereo not shown) [(B1)-Bay K 8644], the “Z Score” value was 0.8527.

`C#CCN1C(C)=C(C(=O)OC)C(c2cccc([N+](=O)[O-])c2)C(C(=O)OCC)=C1C` (stereo not shown) [MRS 1845]: the Activity result is on record as “no” and the “Z Score” value is listed as −0.006196. For the same compound, the Z score under setting [1] is recorded as −0.006.

In the case of `CC(NCCc1ccc(O)cc1)C(O)c1ccc(O)cc1` (stereo not shown) [Ritodrine hydrochloride], the “Z Score” value under setting [9] is given as −2.332. Moreover, the Z score under setting [1] is −2.332. For the same compound, the Activity entry under setting [10] is “yes”.

As for `O=C(O)[C@@H]1[C@H](C(=O)O)[C@H]2CC[C@@H]1O2` [Endothall], the “Z Score” value is listed as −1.143. For the same compound, the Z score under setting [1] was −1.143. The Activity result under setting [6] is given as “no”.

With `CCOC(=O)c1ncn2c1CN(C)C(=O)c1cc(F)ccc1-2` [Flumazenil], the Activity entry is on record as “no”. Besides, under setting [3], the “Z Score” value is recorded as −0.3664. Under setting [1], the Z score was −0.366.

With `CCN(CC)CC#CCOC(=O)C(O)(c1ccccc1)C1CCCCC1` (stereo not shown) [Oxybutynin Chloride], the Activity result was “no”. Further, under setting [4], the “Z Score” value was found to be 0.708. Under setting [1], this compound came in with a Z score of 0.708.

`O=C(CCCN1CCC(O)(c2cccc(C(F)(F)F)c2)CC1)c1ccc(F)cc1` [Trifluperidol hydrochloride]: under setting [9], the “Z Score” value was −1.621. For the same compound, the Z score under setting [7] was −1.621. For the same compound, the Activity result under setting [8] was “no”.

Turning to `Cc1ccc(N(CC2=NCCN2)c2cccc(O)c2)cc1` [Phentolamine mesylate], where the note is “168 h, 3 µM”, the “Z Score” value is recorded as −0.3191 and the Z score is given as −0.319. Under setting [2], the Activity result is recorded as “no”.

In the case of `CN1CCC(c2c[nH]c3ccc(O)cc23)CC1.O=C(O)/C=C\C(=O)O` [BRL 54443 maleate], the “Z Score” value is on record as 0.3378. Under setting [5], this compound came in with a Z score of 0.338. Further, under setting [6], the Activity entry is “no”.

Consider `CC(C)N(CCC(C(N)=O)(c1ccccc1)c1ccccn1)C(C)C` (stereo not shown) [Disopyramide phosphate], for which, under setting [4], the “Z Score” value was −0.07187. Further, the Z score under setting [1] is −0.072. Also, under setting [10], the Activity result is “no”.

Turning to `CC1CN(S(=O)(=O)c2cccc3cnccc23)CCN1.Cl.Cl` [L-701,324], the “Z Score” value turned out to be 0.4513. Under setting [1], this compound registered a Z score of 0.451.
